In brackets after ≈: the same amount, converted by molar mass. Like-named read-outs stand apart in the source and are kept apart here.
Tests used:
kinetic solubility = assay type: physicochemical; conditions: PBS pH = 7
Method: (§1) Kinetic solubility, microsomal stability, and plasma stability were determined following our internal protocol (Symeres). The Caco-2 and PPB determinations were performed by Cyprotex.

[1] = mouse plasma protein binding; assay type: in vitro ADME; conditions: read-out: mouse PPB (converted)
Method: as §1

PARP14 = biological target: T1, PARP14 (Homo sapiens, UniProt Q460N5); experiment: PARP14 biochemical assay; conditions: > under 50% inhibition
T1 construct: made in house
Method: (§2) All reactions were performed at ambient temperature.
(§3) The assay conditions for the other PARP enzymes were used as previously described.[39]

COLO 320DM cells [2] = experiment: Western blot of cytoplasmic and nuclear lysates of treated COLO 320DM cells; assay type: cell-based, human
Method: (§4) After 5 days, the antiproliferative effect of compound treatment was measured at 490 nm. Mean value ± standard deviation (SD) for one representative experiment of more than three repeated assays, each with six replicates, are shown. […] (b) Representative immunoblots of cytoplasmic TNKS1/2, AXIN1, AXIN2, and cytoplasmic and nuclear transcriptionally active β-catenin (non-phospho) and β-catenin. […] For (b) and (c), control = 0.001% DMSO. (c) Real-time RT-qPCR analyses of WNT/β-catenin signaling target genes (AXIN2, DKK1, NKD1, and APCDD1). Boxplots show median, first and third quartiles, and maximum and minimum whiskers for combined data from three independent experiments with three replicates each. Dotted lines depict the control mean value = 1. For (a) and (c), analysis of variance (ANOVA) tests (Holm–Sidak method, versus control) are indicated by *** (p < 0.001) and * (p < 0.05), while ANOVA on ranks tests (Dunn’s method, versus control) are indicated by ^† (p < 0.05).
Western blot analysis of nuclear and cytoplasmic lysates from compound-treated COLO 320DM cells was performed as previously described.[39],[50]

human PXR = biological target: T2, human PXR (Homo sapiens, UniProt O75469); experiment: PXR assay (CYP induction); assay type: in vitro ADME; conditions: highest concentration, 100 μM
T2 construct: Admescope, contract assay
Method: (§5) A safety panel (Cerep) of 44 selected targets (n = 2) including hERG Inhibition using 10 μM 24 was performed by Eurofins. Ames and CYP3A4 inhibition assays were performed by Cyprotex, and the PXR assay (CYP induction) was performed at Admescope. The PARP assays are described below.

PARP10 = biological target: T3, PARP10 (Homo sapiens, UniProt Q53GL7); experiment: PARP10 biochemical assay; conditions: >>: no inhibition detected
T3 construct: made in house
Method: as §2, §3

TNKS2 = biological target: T4, TNKS2 (Homo sapiens, UniProt Q9H2K2); experiment: TNKS2 biochemical assay (unreacted NAD+ fluorescence)
T4 construct: TNKS2 (residues 873–1162); made in house
T4 sequence (Q9H2K2 873-1162): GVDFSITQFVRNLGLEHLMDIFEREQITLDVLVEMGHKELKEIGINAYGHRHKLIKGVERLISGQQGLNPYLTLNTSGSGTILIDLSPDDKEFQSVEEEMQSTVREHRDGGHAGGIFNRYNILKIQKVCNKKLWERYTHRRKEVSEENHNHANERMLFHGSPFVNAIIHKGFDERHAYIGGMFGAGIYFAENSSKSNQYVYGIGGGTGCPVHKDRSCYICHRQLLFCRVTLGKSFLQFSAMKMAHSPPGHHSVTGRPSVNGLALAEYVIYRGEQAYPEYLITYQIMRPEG
Method: New compounds were prepared in half-log dilution series, and the reactions were carried out in quadruplicates with protein and compound controls to exclude the effect of compound autofluorescence. All reactions were performed at ambient temperature. TNKS1 (20 nM) or TNKS2 (5 nM) was incubated for 20 h in assay buffer (50 mM Bis-Tris propane (BTP), pH 7.0, 0.5 mM Tris(2-carboxyethyl)phosphine (TCEP), 0.01% Triton X-100) with compound and 10 μM or 500 nM NAD^+, respectively.

CYP3A4 = biological target: T5, CYP3A4 (Homo sapiens, UniProt P08684); experiment: CYP3A4 inhibition; assay type: in vitro ADME
T5 construct: Cyprotex, contract assay
Method: as §5

COLO 320DM cells [3] = experiment: real-time qRT-PCR of WNT/β-catenin target genes in COLO 320DM cells; assay type: cell-based, human; conditions: dose-dependent
Method: as §4

PARP1 = biological target: T6, PARP1 (Homo sapiens, UniProt P09874); experiment: PARP1 biochemical assay; conditions: > under 50% inhibition
T6 construct: made in house
Method: as §2, §3

Ames test = experiment: Ames test
Method: as §5

T3 sequence (Q53GL7 whole entry): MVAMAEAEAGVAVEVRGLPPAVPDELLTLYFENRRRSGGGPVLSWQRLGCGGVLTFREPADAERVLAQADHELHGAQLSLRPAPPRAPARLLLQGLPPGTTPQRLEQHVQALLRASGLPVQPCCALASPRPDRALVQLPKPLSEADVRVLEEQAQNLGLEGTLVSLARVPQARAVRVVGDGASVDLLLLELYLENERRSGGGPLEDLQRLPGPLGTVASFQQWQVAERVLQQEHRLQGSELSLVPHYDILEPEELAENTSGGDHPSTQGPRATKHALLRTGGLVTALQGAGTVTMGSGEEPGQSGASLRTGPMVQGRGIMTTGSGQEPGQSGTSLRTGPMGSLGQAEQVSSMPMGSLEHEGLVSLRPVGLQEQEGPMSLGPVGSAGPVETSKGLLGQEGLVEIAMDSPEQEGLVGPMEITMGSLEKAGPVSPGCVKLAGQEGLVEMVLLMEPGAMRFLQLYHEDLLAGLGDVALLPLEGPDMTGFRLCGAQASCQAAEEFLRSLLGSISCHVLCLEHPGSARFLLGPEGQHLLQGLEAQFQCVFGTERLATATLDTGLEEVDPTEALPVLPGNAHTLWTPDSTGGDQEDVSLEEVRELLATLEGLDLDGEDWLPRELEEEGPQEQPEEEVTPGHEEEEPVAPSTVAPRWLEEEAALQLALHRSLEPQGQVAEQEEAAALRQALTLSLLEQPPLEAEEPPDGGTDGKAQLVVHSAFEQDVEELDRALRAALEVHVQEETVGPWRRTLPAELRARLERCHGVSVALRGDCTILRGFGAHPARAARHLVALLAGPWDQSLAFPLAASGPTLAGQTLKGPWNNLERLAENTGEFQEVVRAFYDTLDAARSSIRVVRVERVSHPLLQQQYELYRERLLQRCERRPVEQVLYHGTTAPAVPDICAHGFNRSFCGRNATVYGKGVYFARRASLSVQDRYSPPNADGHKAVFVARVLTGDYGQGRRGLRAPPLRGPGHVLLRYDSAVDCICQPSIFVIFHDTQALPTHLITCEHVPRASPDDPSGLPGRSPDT
T2 sequence (O75469 whole entry): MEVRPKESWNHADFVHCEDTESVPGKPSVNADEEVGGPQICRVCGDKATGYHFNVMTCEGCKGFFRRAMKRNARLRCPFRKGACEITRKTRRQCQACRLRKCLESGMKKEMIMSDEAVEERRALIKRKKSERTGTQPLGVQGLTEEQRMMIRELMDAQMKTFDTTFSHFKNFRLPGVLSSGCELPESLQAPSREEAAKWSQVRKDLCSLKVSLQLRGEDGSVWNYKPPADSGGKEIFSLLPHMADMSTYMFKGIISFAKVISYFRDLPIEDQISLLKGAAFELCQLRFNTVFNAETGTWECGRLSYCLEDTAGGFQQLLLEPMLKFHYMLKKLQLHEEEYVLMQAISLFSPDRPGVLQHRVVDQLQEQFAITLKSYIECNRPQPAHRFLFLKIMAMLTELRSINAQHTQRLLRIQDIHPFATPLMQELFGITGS
T6 sequence (P09874 whole entry): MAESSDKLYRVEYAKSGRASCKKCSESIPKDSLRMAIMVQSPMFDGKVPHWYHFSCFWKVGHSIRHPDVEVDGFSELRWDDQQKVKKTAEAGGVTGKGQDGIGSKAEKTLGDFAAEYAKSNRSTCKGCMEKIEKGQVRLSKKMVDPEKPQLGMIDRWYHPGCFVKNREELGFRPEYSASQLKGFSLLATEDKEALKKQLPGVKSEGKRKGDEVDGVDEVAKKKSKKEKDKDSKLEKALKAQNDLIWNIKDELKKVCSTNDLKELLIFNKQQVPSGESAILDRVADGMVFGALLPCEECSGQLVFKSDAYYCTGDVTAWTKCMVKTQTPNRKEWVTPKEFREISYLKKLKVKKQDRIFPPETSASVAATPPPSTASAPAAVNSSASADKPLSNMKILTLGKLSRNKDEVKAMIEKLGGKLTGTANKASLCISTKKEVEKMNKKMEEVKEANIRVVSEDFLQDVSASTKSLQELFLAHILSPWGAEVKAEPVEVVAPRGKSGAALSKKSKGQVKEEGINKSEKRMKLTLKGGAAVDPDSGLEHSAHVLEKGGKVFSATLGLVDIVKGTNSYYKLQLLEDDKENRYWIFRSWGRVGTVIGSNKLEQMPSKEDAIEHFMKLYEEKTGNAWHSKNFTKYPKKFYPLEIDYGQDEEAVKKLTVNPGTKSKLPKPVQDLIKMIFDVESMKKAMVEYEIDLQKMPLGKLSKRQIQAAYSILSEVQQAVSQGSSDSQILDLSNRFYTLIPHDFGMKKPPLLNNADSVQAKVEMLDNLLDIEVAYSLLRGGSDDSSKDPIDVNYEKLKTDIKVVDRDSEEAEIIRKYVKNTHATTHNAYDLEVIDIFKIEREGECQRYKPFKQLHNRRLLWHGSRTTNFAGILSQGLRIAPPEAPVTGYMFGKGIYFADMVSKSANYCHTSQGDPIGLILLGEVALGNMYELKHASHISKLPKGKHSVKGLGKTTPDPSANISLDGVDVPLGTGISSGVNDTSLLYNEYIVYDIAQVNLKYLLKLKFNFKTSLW
T5 sequence (P08684 whole entry): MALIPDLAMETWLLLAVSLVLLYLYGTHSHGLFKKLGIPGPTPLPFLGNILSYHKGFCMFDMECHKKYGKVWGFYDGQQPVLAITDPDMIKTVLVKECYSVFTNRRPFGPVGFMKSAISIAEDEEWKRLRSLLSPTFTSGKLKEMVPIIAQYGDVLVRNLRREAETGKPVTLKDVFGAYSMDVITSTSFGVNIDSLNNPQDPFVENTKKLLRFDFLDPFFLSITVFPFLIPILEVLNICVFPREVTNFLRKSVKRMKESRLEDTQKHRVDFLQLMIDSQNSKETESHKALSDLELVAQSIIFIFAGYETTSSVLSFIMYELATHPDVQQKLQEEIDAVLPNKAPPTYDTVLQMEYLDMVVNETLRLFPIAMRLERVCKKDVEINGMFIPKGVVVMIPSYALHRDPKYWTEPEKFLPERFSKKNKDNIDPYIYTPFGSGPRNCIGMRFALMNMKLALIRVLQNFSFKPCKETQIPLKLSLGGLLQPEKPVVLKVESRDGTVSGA
T1 sequence (Q460N5 whole entry): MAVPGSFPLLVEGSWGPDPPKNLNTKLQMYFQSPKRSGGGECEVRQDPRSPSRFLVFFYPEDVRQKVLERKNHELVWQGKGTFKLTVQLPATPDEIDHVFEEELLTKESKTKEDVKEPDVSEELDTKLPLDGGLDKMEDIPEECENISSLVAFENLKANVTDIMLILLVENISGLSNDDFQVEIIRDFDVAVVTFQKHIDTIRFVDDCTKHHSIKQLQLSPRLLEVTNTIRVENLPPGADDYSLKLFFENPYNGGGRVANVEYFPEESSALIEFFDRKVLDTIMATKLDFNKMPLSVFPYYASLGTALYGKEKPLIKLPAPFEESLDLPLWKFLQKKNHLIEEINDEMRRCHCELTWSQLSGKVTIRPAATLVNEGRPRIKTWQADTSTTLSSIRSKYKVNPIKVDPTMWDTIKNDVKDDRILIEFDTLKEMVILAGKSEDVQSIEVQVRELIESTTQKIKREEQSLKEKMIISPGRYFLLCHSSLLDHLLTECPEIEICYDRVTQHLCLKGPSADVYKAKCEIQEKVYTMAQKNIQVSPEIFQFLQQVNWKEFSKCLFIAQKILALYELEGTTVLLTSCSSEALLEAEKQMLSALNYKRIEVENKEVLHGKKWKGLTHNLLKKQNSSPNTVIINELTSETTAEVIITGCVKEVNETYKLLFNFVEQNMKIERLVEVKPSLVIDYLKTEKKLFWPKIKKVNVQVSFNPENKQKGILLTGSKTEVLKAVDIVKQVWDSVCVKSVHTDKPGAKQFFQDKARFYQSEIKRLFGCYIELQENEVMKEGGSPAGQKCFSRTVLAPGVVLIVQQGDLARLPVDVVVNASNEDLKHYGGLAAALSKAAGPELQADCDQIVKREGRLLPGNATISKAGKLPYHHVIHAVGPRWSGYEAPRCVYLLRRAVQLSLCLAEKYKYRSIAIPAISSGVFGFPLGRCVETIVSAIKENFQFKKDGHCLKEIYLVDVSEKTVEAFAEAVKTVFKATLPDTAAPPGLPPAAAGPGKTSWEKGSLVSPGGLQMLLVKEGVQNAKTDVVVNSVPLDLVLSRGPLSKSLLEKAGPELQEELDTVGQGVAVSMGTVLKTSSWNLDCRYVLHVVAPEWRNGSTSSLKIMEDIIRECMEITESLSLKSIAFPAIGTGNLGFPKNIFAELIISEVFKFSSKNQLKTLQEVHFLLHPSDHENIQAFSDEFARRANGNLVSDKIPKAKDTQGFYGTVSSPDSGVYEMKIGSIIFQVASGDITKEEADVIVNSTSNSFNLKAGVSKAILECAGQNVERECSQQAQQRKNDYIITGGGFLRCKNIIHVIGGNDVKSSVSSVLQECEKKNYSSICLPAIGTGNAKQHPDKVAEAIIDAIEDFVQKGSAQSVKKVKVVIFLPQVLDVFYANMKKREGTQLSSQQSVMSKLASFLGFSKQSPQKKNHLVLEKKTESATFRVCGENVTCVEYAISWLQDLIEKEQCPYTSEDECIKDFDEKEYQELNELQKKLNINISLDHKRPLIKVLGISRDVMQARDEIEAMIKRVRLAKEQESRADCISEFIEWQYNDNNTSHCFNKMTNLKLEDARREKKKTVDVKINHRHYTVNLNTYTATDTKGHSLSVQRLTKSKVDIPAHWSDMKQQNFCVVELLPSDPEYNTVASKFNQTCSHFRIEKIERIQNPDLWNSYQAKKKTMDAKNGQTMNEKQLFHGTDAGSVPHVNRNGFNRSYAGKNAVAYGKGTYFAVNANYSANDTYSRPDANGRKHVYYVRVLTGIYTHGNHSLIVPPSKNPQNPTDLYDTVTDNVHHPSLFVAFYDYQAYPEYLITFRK

Compound: CCOc1ccc(-c2nnc([C@H]3C[C@H](NC(=O)c4cccc5nccnc45)C3)n2-c2ccccc2F)nc1 [Compound 24, N-(trans-3-(5-(5-Ethoxypyridin-2-yl)-4-(2-fluorophenyl)-4H-1,2,4-triazol-3-yl)cyclobutyl)quinoxaline-5-carboxamide]
- solubility kinetic at 1 h (kinetic solubility): 31 µM (≈ 15.8 µg/mL)
- fraction unbound [1]: 0.0142
- IC50 (PARP14): > 100000 nM
- level of transcriptionally active β-catenin (nonphosphorylated) (COLO 320DM cells [2]; cytoplasmic and nuclear fractions): reduced
- TNKS1/2 protein levels (COLO 320DM cells [2]; dose-dependent, immunoblot): either increased or decreased
- AXIN1 and AXIN2 protein levels (COLO 320DM cells [2]; immunoblot): stabilized
- CYP induction (human PXR) (human PXR): nonactivator ^b ^c
- IC50 (PARP10): > 10000 nM
- IC50 (TNKS2; IC50 TNKS2): 1.8 nM
- IC50 (TNKS2; IC50 TNKS2, TNKS2 5 nM, 500 nM NAD+, 20 h, quadruplicates, 95% confidence intervals in parentheses, 24: averages of multiple independent measurements): 1.6 nM
- TNKS2 pIC50 ± SEM (TNKS2; TNKS2 5 nM, 500 nM NAD+, 20 h): 2.0 (8.71 ± 0.069)
- IC50 (TNKS2; TNKS2 pIC50 ± SEM, TNKS2 5 nM, 500 nM NAD+, 20 h): 1.62 nM
- IC50 (TNKS2; read-out: IC50 TNKS2): 2 nM
- IC50 (CYP3A4): > 25000 nM
- transcripts of WNT/β-catenin target genes AXIN2, DKK1, NKD1, APCDD1 (COLO 320DM cells [3]): reduced levels
- IC50 (PARP1): > 100000 nM
- Ames test (Ames test): nongenotoxic

— publication PMC8713164, “Development of a 1,2,4-Triazole-Based Lead Tankyrase Inhibitor: Part II” (Journal of Medicinal Chemistry, 2021)
